# Legend:
# [1] = mice; cited from earlier work
# [2] = test system: immune populations in the spleen; assay: CyTOF of spleen after VTA DA activation and LPS injection; format: in vivo, mice; details: spleen 24 h after VTA DA activation and LPS injection; Gq vs control
# Procedure: FIGS. 3A-3E. Are graphs showing the effects of VTA DA neurons activation on a numbers of defined immune populations in the spleen as determined by CyTOF. FIG. 3A is an experimental timeline: spleens were collected from control and Gq mice 24 h after VTA DA activation and LPS injection (5 ug/kg). […] The individual ions were counted and then parsed into a flow cytometry file format. This file can be analyzed by traditional flow cytometry software or by SPADE, which allows integrating the complex information. SPADE analysis is composed of several steps: A density-dependent down-sampling of the original data is clustered. Adjacent clusters are drawn in alternating colors. Minimum spanning tree that connects the cell clusters is generated and color-coded. Nodes are colored by the number of cells in each cluster (7-547 cells). This allows visualization of the changes in the various immune populations. Cluster of CD8, CD4, NK B cell and monocytes are indicated.
# CyTOF mass cytometry: Single-cell suspensions of cells from the blood/bone marrow/spleen/lymph nodes of the treated mice are stained with monoclonal or polyclonal antibodies, conjugated to metal probes. […]
# [3] = test system: immune cell clusters (CD45+ cells); assay: CyTOF mass cytometry of blood and spleen with Citrus analysis; format: in vivo, mice; details: 24 h after CNO, VTA-activated vs control
# Procedure: Two weeks after completion of the behavioral testing, mice were injected intraperitoneally with CNO and anesthetized 24 hours thereafter. Spleens and blood samples were collected. Spleens were dissociated into single-cell suspensions in 2% fetal bovine serum (Biological Industries, IL) and mesh filtered to remove clumps and debris. Blood samples were collected into heparin-coated sterile test tubes. Both the blood and the spleen cell suspensions were lysed with red blood cell lysis buffer (BD Biosciences, NJ, US). Cells ([…]) from each tissue were stained, for 1 hour at room temperature, with a mixture of metal tagged antibodies recognizing CD45, CCR3, CD80, GR1, CD86, CD19, CD4, CD45R, CD152, CD138, CD8, NK1.1, CD27, CD206, CD25, CD14, CD11c, CD49b, CD34, CD69, CD123, TCRβ, CCR7, CD28, CD115, CD133, TLR4, CD117, CD79b, CD62L, CD44, CD45RA, CD1d, IAIE, CD5, and CD11b. All antibodies were conjugated using the MAXPAR reagent (Fluidigm Inc.), with Rhodium and Iridium intercalators used to identify live/dead cells. Cells were washed twice with PBS, fixed in 1.6% formaldehyde (Sigma-Aldrich, St. Louis, MO) for 1 hour, washed again in ultrapure H2O and subjected to CyTOF mass cytometry analysis on a CyTOF I machine, with cell events acquired at approximately 500 events per second. In addition, each sample was spiked with internal metal isotope bead standards, which then was used for sample normalization by CyTOF software (Fluidigm). Acquired data was then uploaded to a Cytobank web server (Cytobank Inc.) for data processing and gating out of dead cells and normalization beads. Data was transformed using an arc sin h (X/5) transformation.
# Differences in cell subset abundance and functional marker expression between VTA activated and control mice, were identified using the Citrus algorithm, a clustering and differential detection algorithm especially suited for high dimensional cytometry data (2). Twenty FCS files of normalized, live cell/no beads samples (Five VTA activated mice spleens, five VTA activated mice blood samples, 5 control mice spleen and five control mice blood) were each randomly sampled for 40,000 single cell events each. Briefly, Citrus performs three steps to identify cell subsets and differences between groups: First, collected single cell events are pooled together and iteratively hierarchically clustered using a subset of the measured channels for clustering (See Table 1 for a list of 23 clustering markers), yielding overlapping clusters with the ultimate cluster being one encompassing all sampled events. Second, the pooled dataset is split back into its constituting samples and the relative abundance of cells in each cluster is computed, as well as the median values of each functional marker (see Table 1 for a list of functional markers). Only cell clusters whose total abundance in one or more of the measured samples was greater than 1% of the total measured sample was retained for downstream analysis, yielding a total of 151 clusters. Third, the Citrus implementation of the SAM algorithm was applied, to identify, separately, differences in cell subset abundances and medians between VTA activated and control mouse samples at a predetermined FDR of 5%. Beyond this, an additional criteria for calling differences was employed, by performing a Mann-Whitney non-parametric test of significance on each cluster found to be different between VTA activated and control and requiring that it meet a p-value <0.05 criteria. Manual inspection of Citrus output was used to identify the closest known gross-cell type, matching the 23 combination clustering marker panel. A similar procedure analysis procedure was performed for 6-OHDA samples versus control. […]
compound,measurement,setting,value
"C[N+]1([O-])CCN(C2=Nc3cc(Cl)ccc3Nc3ccccc32)CC1 [CNO, clozapine-N-oxide]",conversion of CNO to clozapine,[1],does not convert to clozapine
same,levels of CD69,[2],No change was detected
same,abundance of B-cell subsets,[3]; blood and spleen,decreased in abundance
same,"CD1d levels on APC subsets (granulocytes, NK cells, monocyte/macrophages)",[3]; blood,reduced
same,"CD25, CD69 and CD206 expression",[3]; spleen,upregulation
same,CD80 and CD86 expression,[3]; spleen,Upregulation
same,CD1d expression,[3]; spleen,downregulation
